Source: patent US20040106671A1, “Remedies for vesical hyperesthesia” (priority 2001, published 2004)

How the values were obtained:
[1] = test system: Hypersensitivity of Bladder with Cystitis; test: Inhibitory activity on hypersensitivity of bladder with cystitis (cystometry, xylene-induced cystitis); format: in vivo, Male SD rats; conditions: oral, rats with xylene-induced cystitis; for pre-micturition contractions (amplitude, relative value, value before administration defined as 100): 0.05 mg/mL suspension at 2 mL/kg, average ± standard error, n = 13
Method: The experiment was carried out by referring to the method of Morikawa, et al. [Jpn. J. Pharmacol., Vol. 52, pp. 587-595 (1990)]. Male SD rats weighing from 250 to 400 g (supplied by Japan SLC) were used in the test. Five to seven animals of these rats were put in each metal cage and reared by allowing them to freely take commercially available chow and water, in an animal room at room temperature between 19 and 25° C. and humidity between […] and 70% under illumination for 12 hours (from 7:00 a.m. to 7:00 p.m.) per day. The rats were subjected to bladder catheterization. Under anesthesia with pentobarbital sodium, the bladder was exposed by midline incision of the abdomen. […] The bladder catheter was fixed with a surgical silk ligature and indwelled. The other end of the catheter was exposed subcutaneously from the back of the neck, plugged and then fixed to the skin with a surgical thread. Two to three days after the bladder catheterization, a cystometry test was performed. The rats were put in a Bollman cage (Natsume Seisakusho Co., Ltd.) and a three-way cock was connected to the bladder catheter, one end of the cock was connected to a pressure transducer (Nihon Kohden Corp.) and the other end was connected to a 50-mL syringe (Terumo Corp.) arranged to an infusion pump (Harvard Apparatus, Inc.) for physiological saline infusion. The intravesical pressure signal from the pressure transducer was amplified with a strain pressure amplifier (AP-601G, Nihon Kohden Corp.) connected thereto, and was recorded on a thermal array recorder (RTA-1200, Nihon Kohden Corp.) via a polygraph system (RMP-6008, Nihon Kohden Corp.) containing the above amplifier. After the completion of the preparation for the measurement, a room temperature physiological saline was continuously infused into the bladder at a flow rate of 3 mL/h, and the intravesical pressure was measured to observe micturition intervals. After the micturition intervals became constant, the intravesical pressure waveform was recorded for one hour. Then, saline infusion was stopped, and 0.5 mL of xylene (Wako Pure Chemical Industries, Ltd.) was infused into the bladder through the catheter and was removed about 10 seconds later to cause cystitis. After 30 minutes, the continuous infusion of saline was started again and the intravesical pressure was monitored for about one hour to obtain the value before dosing. The test compound was suspended in a 0.5 w/v % aqueous solution of methylcellulose at a concentration of 0.05 mg/mL. The suspension or a vehicle was orally administered to the animals at a volume of 2 mL/kg. After the administration of the test compound, the intravesical pressure waveform was recorded for 4.5 hours. […] Pre-micturition contraction was measured as an index of bladder hypersensitivity. The values of pre-micturition contractions were read from the intravesical pressure waveform recorded on a chart paper using a digitizer (KD3220, Graphtec Corporation) controlled by a computer (PC-9801NS/R, NEC), and saved as a WJ2 file on Lotus 1-2-3 R2.5J (Lotus). […] The amplitude of pre-micturition contractions was expressed as a relative value when the value before the drug administration that was defined as 100, and the average ±standard error was calculated for each group.

[2] = test system: dd male mice; test: Acute toxicity test; format: in vivo; conditions: oral administration, mortality on the seventh day after the administration
Method: The test compound was administered orally or intraperitoneally to 3 animals per group of dd male mice (body weight: 20±1 g). The minimum lethal dose (MLD) value was obtained by observing mortality on the seventh day after the administration.

C[C@](O)(C(=O)Nc1cccc2c1C(=O)c1sccc1CS2(=O)=O)C(F)(F)F [Compound 1, (S)-(+)-N-(5,5-dioxido-10-oxo-4,10-dihydrothieno[3,2-c][1]benzothiepin-9-yl)-3,3,3-trifluoro-2-hydroxy-2-methylpropanamide]
pre-micturition contractions (amplitude, relative value, value before administration defined as 100) ([1]; After 1 hour): 71.5 ± 6.5% | pre-micturition contractions (amplitude, relative value, value before administration defined as 100) ([1]; After 2 hours): 64.7 ± 6.8 % | pre-micturition contractions (amplitude, relative value, value before administration defined as 100) ([1]; After 3 hours): 61.7 ± 6.8 % | pre-micturition contractions (amplitude, relative value, value before administration defined as 100) ([1]; After 4 hours): 61.6 ± 5.4 % | effect on pre-micturition contractions (in words) ([1]; Test Example 1): inhibited pre-micturition contractions | minimum lethal dose (MLD) [2]: > 1000 mg/kg
